According to patent US20200316087A1, “NOVEL COMBINATION THERAPY FOR ANXIETY DISORDERS, EPILEPSY, AND PAIN” (priority 2017, published 2020):

Assay: Unbound plasma and brain concentrations after i.p. dosing
Format: in vivo, rats
Conditions: for Unbound brain concentration / Unbound plasma concentration: male Sprague-Dawley rats, n=3, mean ± S.E.M.
Source text: (Table 4). Using these unbound drug concentrations, the PI based on drug levels in plasma was 3 and that based upon brain drug levels was 3.8.

SMILES: C#Cc1ccc2c(c1)C(c1ccccn1)=NCc1c(-c3cnco3)ncn1-2 [KRM-II-81, 5-(8-ethynyl-6-(pyridin-2-yl)-4H-benzo[f]imidazo[1,5-a][1,4]diazepin-3-yl)oxazole]
- Unbound brain concentration (17.3 mg/kg i.p.): 1.64 ± 0.141 µM
- Unbound plasma concentration (17.3 mg/kg i.p.): 3.29 ± 0.107 µM
- Unbound brain concentration (121 mg/kg i.p.): 6.25 ± 1.652 µM
- Unbound plasma concentration (121 mg/kg i.p.): 10 ± 2.147 µM
- 121/17.3 Ratio, brain (ratio of unbound brain concentrations at 121 and 17.3 mg/kg i.p.): 3.81
- 121/17.3 Ratio, plasma (ratio of unbound plasma concentrations at 121 and 17.3 mg/kg i.p.): 3.04
